Experimental data taken from the NIST ThermoML archive (doi:10.1007/s10765-006-0018-5).
Numbers after ± are expanded uncertainties.

Columns and labels:
[1] = Liquid
[2] = refractive index (Na D-line) (dimensionless); conditions: 298.15 K; 101.33 kPa; Liquid; Standard Abbe refractometry

Row | vapor or sublimation pressure ([1]; 389.5 K) | Structure (SMILES) | refractive index [2] | vapor or sublimation pressure ([1]; 410 K)
1 | 97.3 ± 1.6 kPa | CCCCO [butan-1-ol] | 1.3973 ± 0.0008 | –
2 | – | Cc1ccc(C)cc1 [1,4-dimethylbenzene] | 1.49325 ± 0.00075 | 97.3 ± 1.6 kPa
